According to patent publication US11396512B2, “CDK2/4/6 inhibitors” (Pfizer Inc., priority 2016, dated 2022):

How the values were obtained:
CDK6/Cyclin D1 = CDK6/Cyclin D1 (Homo sapiens (Human), UniProt Q00534); assay: biochemical
[1] = tested on: HCC1806 mouse tumor xenograft; assay: HCC1806 tumor model (mouse xenograft); assay type: in vivo; details: NU/NU female mice, 30 mpk PO BID, 50 mpk PO BID and 75 mpk PO BID, 14 days
Procedure: Source: HCC1806 (#CRL 2335, ATCC, Manassas, Va.)
The HCC1806 tumor cell line was cultured in RPM11640 media supplemented with 10% Fetal Bovine Serum (FBS). To establish a HCC1806 xenograft model, 5×10^6 cells per mouse were implanted subcutaneously into right hind flank NU/NU female mice. Cells were suspended in 50% Cultrex Basement Membrane Extract and 50% RPMI 1640 media serum free media prior to implantation.
Animals were randomized 7 days after cells implantation with each group consisting of 13 mice. Treatment began when tumors reached 100 mm^3 to 170 mm^3 in size on Day 7. Test compounds were prepared in 0.1% Tween, 0.5% Methyl cellulose in water and dosed PO at 30, 50, and 75 mg/kg as a suspension BID for 14 days. Mice receiving no drugs were given vehicle BID for 14 days. Tumor volumes were measured twice a week with an electric caliper, with tumor volumes calculated using Length×Width×Width/2 formula. Animal weights were recorded twice weekly.

Chain of CDK6/Cyclin D1 (Q00534 whole entry): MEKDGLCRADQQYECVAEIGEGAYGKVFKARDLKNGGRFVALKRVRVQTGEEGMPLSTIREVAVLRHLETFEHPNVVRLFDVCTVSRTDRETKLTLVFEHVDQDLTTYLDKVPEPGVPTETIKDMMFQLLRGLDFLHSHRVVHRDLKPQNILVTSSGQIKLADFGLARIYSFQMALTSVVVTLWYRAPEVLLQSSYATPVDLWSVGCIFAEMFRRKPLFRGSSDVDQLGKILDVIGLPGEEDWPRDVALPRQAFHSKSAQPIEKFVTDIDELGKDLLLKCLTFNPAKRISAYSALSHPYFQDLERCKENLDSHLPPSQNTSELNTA
Chain of CDK6/Cyclin D1 (P24385 whole entry partner): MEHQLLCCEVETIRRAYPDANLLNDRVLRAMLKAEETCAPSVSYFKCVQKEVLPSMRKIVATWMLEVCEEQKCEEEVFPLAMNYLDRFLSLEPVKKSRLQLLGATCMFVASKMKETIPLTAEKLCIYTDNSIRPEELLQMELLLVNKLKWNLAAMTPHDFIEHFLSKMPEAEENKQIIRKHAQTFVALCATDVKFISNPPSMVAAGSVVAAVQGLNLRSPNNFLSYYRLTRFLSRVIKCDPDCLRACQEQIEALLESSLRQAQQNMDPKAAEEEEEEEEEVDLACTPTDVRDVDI

SMILES | Ki (CDK6/Cyclin D1) | inhibition of tumor growth (mm^3) [1]
C[C@]1(O)CCCC1n1c(=O)ccc2cnc(NC3CCN(S(=O)(=O)C(F)(F)F)CC3)nc21 (single isomer, unassigned) [Example 89] | 11.3 nM | –
C[C@@]1(O)CCC[C@H]1n1c(=O)ccc2cnc(NC3CCN(S(C)(=O)=O)CC3)nc21 [Example 2, 8-[(1R,2R)-2-hydroxy-2-methylcyclopentyl]-2-{[1-(methylsulfonyl)piperidin-4-yl]amino}pyrido[2,3-d]pyrimidin-7(8H)-one] | – | dose dependent inhibition of tumor growth
